Laboratory results taken from US20250250264A1, “KIF18A INHIBITOR AND USE THEREOF” (Wuhan Humanwell Innovative Drug Research and Development …, priority 2022, published 2025).
Read-outs that look alike come from different tables or passages of the source.

How the values were obtained:
NIH:OVCAR-3 cells = experiment: Assay on inhibition of OVCAR3 tumor cell proliferation (CellTiter-Glo); type: cell-based; details: 3 days of drug treatment, read-out: IC50 (μM), inhibitory effects of compounds on tumor cell proliferation
Experimental: NIH:OVCAR-3 cells (ATCC, Cat No. HTB-161, purchased from Co-Bier) were seeded into a T75 culture flask and cultured in an RPMI 1640 medium containing 20% FBS for 3 days in preparation for subsequent culturing and seeding into a 96-well plate for the cell proliferation assay.
The OVCAR3 cells were seeded at a density of 3000 cells/100 μL/well into the 96-well cell plate, and then the plate was incubated in an incubator (37° C., 5% CO2) for 18 h. On the second day, drug treatment was started. Serially diluted test compound solutions (each drug starting at a concentration of 10 μM, diluted in DMSO, with a dilution ratio of 1:3, and nine gradient points for each drug) or DMSO (negative control) was added to the medium in the plate at 100 μL/well, and a blank group was set up with only medium, but no seeded cell strains. After the drug addition, the plate was incubated in the incubator for another 3 days (37° C., 5% CO2). On the fourth day, plate detection was performed. To each well, 100 μL of CellTiter-Glo reagent (Promega G9243) was added. The plate was shaken for 5 min and then left to stand at room temperature for 5 min. The chemical luminescence signal value of each well was determined using a microplate reader (PerkinElmer EnVision®2104). Cell proliferation inhibition rate=(1−(compound group−blank group)/(DMSO group−blank group))×100%. Then, the IC50 value of each compound was calculated using the GraphPad Prism 8 software.

[1] = target: recombinant protein KIF18A (kinesin domain: aa 1-467) (Homo sapiens (Human), UniProt Q8NI77); experiment: Assay on inhibition of KIF18A enzymatic activity (ADP-Glo); type: biochemical; details: KIF18A 80 nM, ATP 80 μM, 3 h at room temperature, ADP-Glo luminescence; read-out: IC50 (μM), inhibitory effects of compounds on KIF18A enzymatic activity
recombinant protein KIF18A (kinesin domain: aa 1-467), sequence (Q8NI77 1-467): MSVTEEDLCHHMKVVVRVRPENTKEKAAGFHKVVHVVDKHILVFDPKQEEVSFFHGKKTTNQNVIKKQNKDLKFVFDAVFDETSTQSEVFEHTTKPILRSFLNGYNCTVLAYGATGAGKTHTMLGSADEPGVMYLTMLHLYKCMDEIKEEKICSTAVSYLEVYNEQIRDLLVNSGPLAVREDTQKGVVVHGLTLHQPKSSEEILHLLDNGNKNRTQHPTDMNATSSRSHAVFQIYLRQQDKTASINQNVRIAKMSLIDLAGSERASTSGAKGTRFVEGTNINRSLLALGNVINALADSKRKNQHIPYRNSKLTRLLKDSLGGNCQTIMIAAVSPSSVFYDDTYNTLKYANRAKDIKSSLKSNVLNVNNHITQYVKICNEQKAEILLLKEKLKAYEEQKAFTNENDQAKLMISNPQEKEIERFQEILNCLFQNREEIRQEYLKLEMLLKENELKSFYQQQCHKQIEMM
recombinant protein KIF18A (kinesin domain: aa 1-467), sequence (P02550 whole entry partner, the tested form may be a part): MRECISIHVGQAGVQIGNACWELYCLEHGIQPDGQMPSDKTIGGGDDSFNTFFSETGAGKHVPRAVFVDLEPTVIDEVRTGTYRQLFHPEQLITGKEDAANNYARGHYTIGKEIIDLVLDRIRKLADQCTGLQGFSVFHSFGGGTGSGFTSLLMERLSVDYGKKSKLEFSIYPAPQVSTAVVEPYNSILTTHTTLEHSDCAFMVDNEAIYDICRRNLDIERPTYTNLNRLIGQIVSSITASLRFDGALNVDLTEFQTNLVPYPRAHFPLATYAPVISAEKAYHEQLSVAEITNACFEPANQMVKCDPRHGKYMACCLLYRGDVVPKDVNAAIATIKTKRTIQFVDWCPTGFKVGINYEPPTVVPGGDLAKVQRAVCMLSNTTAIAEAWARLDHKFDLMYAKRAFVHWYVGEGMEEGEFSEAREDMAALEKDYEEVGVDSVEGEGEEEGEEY
recombinant protein KIF18A (kinesin domain: aa 1-467), sequence (P02554 whole entry partner, the tested form may be a part): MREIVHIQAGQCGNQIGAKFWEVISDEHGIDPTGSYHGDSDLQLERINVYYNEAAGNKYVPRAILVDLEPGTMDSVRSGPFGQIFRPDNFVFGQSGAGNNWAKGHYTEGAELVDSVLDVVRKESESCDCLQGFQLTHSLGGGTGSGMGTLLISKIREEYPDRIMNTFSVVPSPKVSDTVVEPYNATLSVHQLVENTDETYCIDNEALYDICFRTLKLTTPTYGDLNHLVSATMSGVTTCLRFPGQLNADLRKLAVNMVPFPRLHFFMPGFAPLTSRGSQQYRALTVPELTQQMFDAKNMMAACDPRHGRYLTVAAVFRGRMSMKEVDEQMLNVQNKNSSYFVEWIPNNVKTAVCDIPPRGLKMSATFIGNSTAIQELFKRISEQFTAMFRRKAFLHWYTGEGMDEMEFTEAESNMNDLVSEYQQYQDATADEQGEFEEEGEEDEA
Text: The recombinant protein KIF18A (kinesin domain: aa 1-467) used in this assay was expressed by the Bac-to-Bac baculovirus expression system from Invitrogen, and the resulting protein was purified for use in this assay (Seki, M. et al. 2003 Nucleic Acids Res.). Quantitative detection of KIF18A enzymatic activity was completed using an ADP-Glo™ kinase assay kit (Promega Inc). Related procedures strictly followed the product instructions, which are briefly described as follows:
The reaction system consisted of a test compound, the recombinant protein KIF18A (aa 1-467), ATP (Promega Inc), and an assay buffer. The test compound was prepared into a 0.5 mM stock solution using DMSO (Sigma Inc) and then serially diluted in DMSO. The assay buffer consisted of an aqueous solution of 15 mM Tris, 10 mM MgCl2 (Sigma Inc), 0.01% Pluronic F-68 (Life Technologies Inc), 1 μM paclitaxel (Cytoskeleton Inc), 30 μg/mL porcine tubulin (Cytoskeleton Inc), and 2% DMSO. The KIF18A protein (final concentration: 80 nM) and the compound at different concentrations (1 μL) were added to the prepared assay buffer (50 μL), and the mixture was incubated at room temperature for 15 min. Then, ATP (final concentration: 80 μM) was added to the reaction mixture, and the resulting mixture was incubated at room temperature for 3 h. After the reaction was completed, 5 μL of the ADP-Glo™ reagent and 2.5 μL of the reaction mixture were added to a 384-well plate (Grenier Inc). The resulting mixture was mixed homogeneously, then sealed by an aluminum foil sealing film, and incubated at room temperature in the dark for 40 min. Finally, 10 μL of the […] was added to each reaction well, and the mixture was incubated at room temperature in the dark for 40 min. After all reactions were completed, the luminescence values of the wells were read on a microplate reader (Molecular Device_SpectraMax Id5), and the inhibition ratios were calculated. The calculation formula for the inhibition rates was as follows: inhibition rate=(1−(compound group−blank group)/(negative control group−blank group))×100%. Then, based on the inhibition rates at different compound concentrations, the IC50 value of the test compound was calculated using the GraphPad Prism 8 software.

IC50 (NIH:OVCAR-3 cells; Homo sapiens, OVCAR-3, 72 h)	IC50 [1]	IC50 (NIH:OVCAR-3 cells)	SMILES
0.142 µM	0.009 µM		O=S(=O)(CCO)Nc1ccc(-n2cc(-c3ncnc(N4CCC(F)(F)CC4)n3)cn2)c(N2CCC3(CC2)CC3)c1 [Example I-130, N-(4-(4-(4-(4,4-Difluoropiperidin-1-yl)-1,3,5-triazin-2-yl)-1H-pyrazol-1-yl)-3-(6-azaspiro [2.5]octan-6-yl)phenyl)-2-hydroxyethanesulfonamide]
0.284 µM	0.022 µM		Cc1cc(-c2nnc(-c3ccc(NS(=O)(=O)CCO)cc3N3CCC4(CC3)CC4)s2)nc(N2CCCC(F)(F)C2)n1 [Example I-85, N-(4-(5-(2-(3,3-Difluoropiperidin-1-yl)-6-methylpyrimidin-4-yl)-1,3,4-thiadiazol-2-yl)-3-(6-azaspiro[2.5]octan-6-yl)phenyl)-2-hydroxyethane-1-sulfonamide]
0.035 µM	0.002 µM		Cc1cc(-c2nnc(-c3ccc(NS(=O)(=O)CCO)cc3N3CCC4(CC3)CC4)o2)nc(N2CCC(F)CC2)n1 [Example I-8, N-(4-(5-(2-(4-fluoropiperidin-1-yl)-6-methylpyrimidin-4-yl)-1,3,4-oxadiazol-2-yl)-3-(6-azaspiro [2.5]octan-6-yl)phenyl)-2-hydroxyethanesulfonamide]
0.365 µM	0.009 µM		Cc1cc(-c2cnn(-c3ccc(NS(=O)(=O)CCO)cc3N3CCC(C)(F)CC3)c2)nc(N2CCC(F)(F)CC2)n1 [Example I-117, N-(4-(4-(2-(4,4-Difluoropiperidin-1-yl)-6-methylpyrimidin-4-yl)-1H-pyrazol-1-yl)-3-(4-fluoro-4-methylpiperidin-1-yl)phenyl)-2-hydroxyethane-1-sulfonamide]
0.033 µM	0.002 µM		Cc1cc(-c2nnc(-c3ccc(NS(=O)(=O)CCO)cc3N3CCC4(CC3)CC4)o2)cc(N2CCC(F)CC2)n1 [Example I-105, N-(4-(5-(2-(4-Fluoropiperidin-1-yl)-6-methylpyridin-4-yl)-1,3,4-oxadiazol-2-yl)-3-(6-azaspiro [2.5]octan-6-yl)phenyl)-2-hydroxyethane-sulfonamide]
0.115 µM	0.01 µM		Cc1cc(-c2nnc(-c3ccc(NS(=O)(=O)CCO)cc3N3CCC4(CC3)CC4)o2)nc(N2CC(F)(F)CC(F)(F)C2)n1 [Example I-100, N-(4-(5-(6-Methyl-2-(3,3,5,5-tetrafluoropiperidin-1-yl)pyrimidin-4-yl)-1,3,4-oxadiazol-2-yl)-3-(6-azaspiro[2.5]octan-6-yl)phenyl)-2-hydroxyethane-1-sulfonamide]
0.056 µM	0.003 µM		O=c1ccc(-c2cnn(-c3ccc(NS(=O)(=O)CCO)cc3N3CCC4(CC3)CC4)c2)nn1C1CC(F)(F)C1 [Example I-121, N-(4-(4-(1-(3,3-Difluorocyclobutyl)-6-oxo-1,6-dihydropyridazin-3-yl)-1H-pyrazol-1-yl)-3-(6-azaspiro[2.5]octan-6-yl)phenyl)-2-hydroxyethane-1-sulfonamide]
	0.001 µM	0.045 µM	Cc1cc(-c2nnc(-c3ccc(NS(=O)(=O)CCO)cc3N3CCC4(CC3)CC4)o2)cc(N2CCC(F)(F)CC2)n1 [Example I-52, N-(4-(5-(2-(4,4-Difluoropiperidin-1-yl)-6-methylpyridin-4-yl)-1,3,4-oxadiazol-2-yl)-3-(6-azaspiro[2.5]octan-6-yl)phenyl)-2-hydroxyethane-1-sulfonamide]
0.076 µM	0.007 µM		Cc1cc(-c2cnn(-c3ccc(NS(=O)(=O)CCO)cc3N3CCC4(CC3)CC4)c2)nc(N2CCC(F)CC2)n1 [Example I-114, N-(4-(4-(2-(4-Fluoropiperidin-1-yl)-6-methylpyrimidin-4-yl)-1H-pyrazol-1-yl)-3-(6-azaspiro[2.5]octan-6-yl)phenyl)-2-hydroxyethane-1-sulfonamide]
0.079 µM	0.001 µM		Cc1cc(-c2nnc(-c3ccc(NS(=O)(=O)CCO)cc3N3CCC4(CC3)CC4)o2)nc(OCCC(F)(F)F)n1 [Example I-27, 2-Hydroxy-N-(4-(5-(6-methyl-2-(3,3,3-trifluoropropoxy)pyrimidin-4-yl)-1,3,4-oxadiazol-2-yl)-3-(6-azaspiro[2.5]octan-6-yl)phenyl)ethane-1-sulfonamide]
0.073 µM	0.001 µM		Cc1cc(-c2nnc(-c3ccc(NS(=O)(=O)CCO)cc3N3CCC4(CC3)CC4)o2)nc(N2CCCC(F)(F)C2)n1 [Example I-7, N-(4-(5-(2-(3,3-Difluoropiperidin-1-yl)-6-methylpyrimidin-4-yl)-1,3,4-oxadiazol-2-yl)-3-(6-azaspiro[2.5]octan-6-yl)phenyl)-2-hydroxyethane-1-sulfonamide]
0.144 µM	0.004 µM		Cc1cc(-c2nnc(-c3ccc(NS(=O)(=O)CCO)cc3N3CCC4(CC3)CC4)o2)nc(N2CCC(F)(F)CC2)c1 [Example I-87, N-(4-(5-(6-(4,4-Difluoropiperidin-1-yl)-4-methylpyridin-2-yl)-1,3,4-oxadiazol-2-yl)-3-(6-azaspiro [2.5]octan-6-yl)phenyl)-2-hydroxyethanesulfonamide]
0.148 µM	0.009 µM		O=S(=O)(CCO)Nc1ccc(-n2cc(-c3nc(N4CCC(F)(F)CC4)ncc3F)cn2)c(N2CCC3(CC2)CC3)c1 [Example I-129, N-(4-(4-(2-(4,4-Difluoropiperidin-1-yl)-5-fluoropyrimidin-4-yl)-1H-pyrazol-1-yl)-3-(6-azaspiro[2.5]octan-6-yl)phenyl)-2-hydroxyethane-1-sulfonamide]
0.186 µM	0.007 µM		Cc1cc(-c2nnc(-c3ccc(NS(=O)(=O)CCO)cc3N3CCC4(CC3)CC4)o2)nc(N2CCC(F)(F)C2)n1 [Example I-5, N-(4-(5-(2-(3,3-Difluoropyrrolidin-1-yl)-6-methylpyrimidin-4-yl)-1,3,4-oxadiazol-2-yl)-3-(6-azaspiro[2.5]octan-6-yl)phenyl)-2-hydroxyethane-1-sulfonamide]
0.051 µM	0.011 µM		Cc1cc(-c2nnc(-c3ccc(NS(=O)(=O)CCO)cc3N3CCC4(CC3)CC4)o2)nc(N2CC(F)(F)C2)n1 [Example I-3, N-(4-(5-(2-(3,3-Difluoroazetidin-1-yl)-6-methylpyrimidin-4-yl)-1,3,4-oxadiazol-2-yl)-3-(6-azaspiro[2.5]octan-6-yl)phenyl)-2-hydroxyethane-1-sulfonamide]
0.412 µM	0.002 µM		CCc1cc(-c2cnn(-c3ccc(NS(=O)(=O)CCO)cc3N3CCC4(CC3)CC4)c2)nc(N2CCC(F)(F)CC2)n1 [Example I-95, N-(4-(4-(2-(4,4-Difluoropiperidin-1-yl)-6-ethylpyrimidin-4-yl)-1H-pyrazol-1-yl)-3-(6-azaspiro[2.5]octan-6-yl)phenyl)-2-hydroxyethane-1-sulfonamide]
0.076 µM	0.011 µM		Cc1cc(-c2nnc(-c3ccc(NS(=O)(=O)[C@H](C)CO)cc3N3CCC4(CC3)CC4)o2)nc(N2CCC(F)(F)CC2)n1 [Example I-40, (R)—N-(4-(5-(2-(4,4-Difluoropiperidin-1-yl)-6-methylpyrimidin-4-yl)-1,3,4-oxadiazol-2-yl)-3-(6-azaspiro[2.5]octan-6-yl)phenyl)-1-hydroxypropane-2-sulfonamide]
0.208 µM	0.011 µM		Cc1cc(-c2cnn(-c3ccc(NS(=O)(=O)CCO)cc3N3CCC(F)(F)CC3)c2)nc(N2CCC(F)(F)CC2)n1 [Example I-106, N-(3-(4,4-Difluoropiperidin-1-yl)-4-(4-(2-(4,4-difluoropiperidin-1-yl)-6-methylpyrimidin-4-yl)-1H-pyrazol-1-yl)phenyl)-2-hydroxyethane-1-sulfonamide]
